Like-named read-outs stand apart in the source and are kept apart here.
Key:
[1] = test system: colorectal mucosa (epithelial tissue of the human colon reconstructed in 3D); conditions: for recovery %: human
Experimental: The trial was conducted according to the OCSE TG 428-EU approved method used for percutaneous penetration.
Like in the first trial, the test was conducted at 37° C. and relative humidity >90%.
Like in the first phase, the test was conducted at 37° C. and relative humidity >90%.

[2] = rectal treatment; cited from earlier work

Row | Structure (SMILES) | recovery Total [1] | recovery % ([1]; 24 h, 5 mg/mL) | recovery % ([1]; 48 h, 200 mg/mL) | adverse effects [2]
1 | CCC(=O)OCC(=O)[C@@]1(OC(=O)CC)[C@@H](C)C[C@H]2[C@@H]3CCC4=CC(=O)C=C[C@]4(C)[C@@]3(Cl)[C@@H](O)C[C@@]21C [BDP C, beclomethasone dipropionate] | 112.53 | 75% |  | 
2 | CCC(=O)OCC(=O)[C@@]1(OC(=O)CC)[C@@H](C)C[C@H]2[C@@H]3CCC4=CC(=O)C=C[C@]4(C)[C@@]3(Cl)[C@@H](O)C[C@@]21C [BDP B, beclomethasone dipropionate] | 133.53 | 89% |  | 
3 | CCC(=O)OCC(=O)[C@@]1(OC(=O)CC)[C@@H](C)C[C@H]2[C@@H]3CCC4=CC(=O)C=C[C@]4(C)[C@@]3(Cl)[C@@H](O)C[C@@]21C [BDP D, beclomethasone dipropionate] | 1339.30 |  | 22% | 
4 | CCC(=O)OCC(=O)[C@@]1(OC(=O)CC)[C@@H](C)C[C@H]2[C@@H]3CCC4=CC(=O)C=C[C@]4(C)[C@@]3(Cl)[C@@H](O)C[C@@]21C [BDP A, beclomethasone dipropionate] | 149.81 | 200% |  | 
5 | CCC(=O)OCC(=O)[C@@]1(OC(=O)CC)[C@@H](C)C[C@H]2[C@@H]3CCC4=CC(=O)C=C[C@]4(C)[C@@]3(Cl)[C@@H](O)C[C@@]21C [BDP, beclomethasone dipropionate] |  |  |  | almost without the adverse effects typical of steroids
